The results in this text go back to patent publication US10323229B1, “Three-dimensional human stem cell-derived cortical spheroid model” (The Florida State University Research Foundation, Inc., priority 2015, dated 2019).

Series [1] has as its system neural cells derived from human iPSK3 cells. The series is described as follows: Aβ1-42 oligomer-induced response in presence of GSK-3β inhibitor CHIR99021 (MTT, ROS, caspase). The note with it: CH 10 μM with 1 μM Aβ1-42 oligomers, day 46 cells. It is filed as cell-based. From the text:
The cells were subsequently characterized by MTT, ROS, and poly caspase assays (Yan, et al., Cryopreservation of embryonic stem cell-derived multicellular neural aggregates labeled with micron-sized particles of iron oxide for magnetic resonance imaging, Biotechnol Prog, 31 (2015) 510-521; Sart, et al., The microenvironment of embryoid bodies modulated the commitment to neural lineage post-cryopreservation, Tissue Eng Part C: Methods., 21 (2015) 356-366). To evaluate the influence of glycogen synthase kinase (GSK)-3p inhibitor, CHIR99021 (1 or 10 μM) was added to the cultures treated with 1 μM Aβ1-42 oligomers for three days and characterized.
(§1) Briefly, the replated neural cells were incubated with 5 mg/mL 3-(4,5-Dimethylthiazol-2-yl)-2,5-diphenyltetrazolium bromide (MTT, Sigma) solution. The absorbance was measured at 500 nm using a microplate reader (Biorad, Richmond, Calif.). Image-iT™ Live Green Reactive Oxygen Species Detection kit (Molecular Probes) was used to detect the intracellular ROS. Briefly, neural cells were seeded at 1×10^5/mL in 96-well plates (100 μL). After 3 days, the cells were rinsed with Hank's balanced salt solution and incubated with 25 μM carboxy-H2DCFDA for 30 min at 37° C. The samples were washed and measured under a fluorescence microplate reader using 488 nm excitation wavelength and 530 nm for emission (Bio-Tek, FLx800, Winoosk, Vt.). Image-iT™ Live Green Poly Caspase Detection kit (Molecular Probes) was used to detect the expression of caspases. The replated cells were incubated for one hour with the fluorescent inhibitor of caspases reagent and analyzed by a fluorescence microplate reader.

Another series deals with hiPSK3-derived EBs. In words: Neural patterning, immunocytochemistry marker quantification. Format: cell-based, human. The following applies: day 42 cells, CHIR 3 μM added to purmorphamine/FGF-2/RA. Here is the method:
Cells were analyzed using phase contrast microscopy, as described in Example 1 or immunohistochemistry. […] After washing, the cells were incubated with the corresponding secondary antibody: Alexa Fluor® 488 goat anti-Mouse IgG, Alexa Fluor® 488 or 594 goat anti-Rabbit IgG, or Alexa Fluor® 594 donkey anti-goat IgG (Life Technologies). The samples were stained with Hoechst 33342 and visualized under a fluorescent microscope (Olympus IX70, Melville, N.Y.). The images from five independent fields (800-1000 cells) were analyzed using ImageJ software. The proportion of positive cells was calculated based on the intensity of marker of interest normalized to the nuclear intensity, indicating the relative expression among different conditions. A neuronal model was prepared using LDN/SB induction, as discussed in Example 2. Neural patterning of hiPSCs was tuned through treatment with cyclopamine (the antagonist of SHH signaling) or purmorphamine (the agonist of SHH signaling) (Stanton & Peng, Small-molecule modulators of the Sonic Hedgehog signaling pathway, Mol Biosyst, 6 (2010) 44-54). […] After 8 days, the cells were treated with different growth factor combinations: […] (3) FGF-2 (10 ng/mL) and cyclopamine (1 μM, Sigma). […]

The test system of series [2] is hiPSC-derived neural cells. The series is described as follows: NMDA-induced neurotoxicity (MTT, ROS, poly caspase). Format: cell-based, human. Here is the method: (§2) The hiPSC-derived neural cells were tested to determine response to different drugs and small molecules. Neural cells were formed as described in Example 2. After differentiation, the derived neural cells were replated onto Geltrex-coated 96-well plate and treated with N-methyl-D-aspartate (NMDA) at 0, 0.05, 0.5, 1 mM to mimic general neural toxicity. Cells were tested to determine response to neural protective molecules. Carbenoxolone (Cx, Sigma) (Beraki, et al., A pharmacological screening approach for discovery of neuroprotective compounds in ischemic stroke, PLoS One, 8 (2013) e69233) was added at different doses (0, 10 µM, 50 µM) of Cx were added with 0.5 mM NMDA for the first 24 h. Then samples were washed with phosphate buffer and the same doses of Cx were added for another 24 h. The cells were then characterized by MTT, reactive oxygen species (ROS), and poly caspase assays.
as §1

Series [3] concerns neuronal cells derived from hiPSK3 cells. In words: MMP-2/-9 inhibitor effects: neurite density, MTT, cell counting. Format: cell-based, human. The note with it: phase contrast, 1 μM. Here is the method: Derived neural cells, as described above, were replated onto Geltrex-coated 96-well plate and treated with MMP inhibitors: ARP 100 (MMP-2 inhibitor), MMP-9 inhibitor I, or SB-3CT (MMP-2 and MMP-9 inhibitor) (all from Santa Cruz) at 1 μM.
The cells were then characterized by MTT, reactive oxygen species (ROS), and poly caspase assays. For some experiments, cell numbers were counted using hemocytometer after trypsin/EDTA dissociation.
as §1, with “Image-iT™ Live Green Poly Caspase Detection kit (Molecular Probes) was used to detect the expression of caspases.” left out

The test system of series [4] is hiPSC-derived neural cells. In words: Carbenoxolone neuroprotection from NMDA-induced neurotoxicity (MTT, ROS, poly caspase). It is filed as cell-based, human. As to the method:
as §2, §1

Each structure is given as a SMILES string.

Consider `Cc1c[nH]c(-c2cnc(NCCNc3ccc(C#N)cn3)nc2-c2ccc(Cl)cc2Cl)n1` [CHIR99021], for which, in series [1], the ROS levels entry is “reduced” and the caspase levels entry is on record as “reduced”. The “increase of MTT activity” value in series [1] (vs. groups without CH or with 1 μM CH) is 25-45%. Further, the “expression of ISL1 and HB9 (motor neuron differentiation)” value in the series on hiPSK3-derived EBs was “increased”.

Consider `CN[C@H](CC(=O)O)C(=O)O` [NMDA, N-methyl-D-aspartate], for which, in series [2] (NMDA 0-1 mM), the caspase activity entry is on record as “logarithmic relationship with NMDA concentration” and the “expression of ROS” value is listed as “increased logarithmically”. Moreover, the “reduction of MTT activity” value in series [2] (NMDA 0.5 or 1 mM, all three groups (control, Purmo, Cyclo)) is 30-50%.

Turning to `O=S(=O)(CC1CS1)c1ccc(Oc2ccccc2)cc1` (stereo not drawn) [SB-3CT], the values for the neurite density result in series [3] (Cyclo group (more cortical glutamatergic neurons)) and in series [3] (Purmo group (more motor neurons)) were “little changes” and “reduction of neurite density”, respectively.

As for `CC1(C)[C@@H](OC(=O)CCC(=O)O)CC[C@]2(C)[C@H]3C(=O)C=C4[C@@H]5C[C@@](C)(C(=O)O)CC[C@]5(C)CC[C@@]4(C)[C@]3(C)CC[C@@H]12` [carbenoxolone, Carbenoxolone], the “increase in MTT activity” value in series [4] (carbenoxolone 10 or 50 μM with 0.5 mM NMDA) is 28-56%. In addition, in series [4] (carbenoxolone with 0.5 mM NMDA), the “expression of ROS” value was “reduced expression of ROS”. Also, the caspase activity entry in series [4] (carbenoxolone with 0.5 mM NMDA, all three groups) is listed as “decreased”.
